Measurements: patent publication US5244884A, “Thionated analogues of thyrotropin releasing hormone” (The United States of America as represented by the …, priority 1992, dated 1993)

Tests used:
[1] = target: T1, TRH receptor binding sites in pituitary (Rattus norvegicus, UniProt Q01717); test: Receptor binding assay, [3H][3-Me-His2]-TRH competition, anterior pituitary homogenate; parameters: species or system rat (Sprague-Dawley); details: rat anterior pituitary membranes; [3H][3-Me-His2]-TRH 3 to 5 nM; 4-6 °C, 2.5 hours; mean ± S.E.M.
T1 construct: from tissue; host or cells: rat anterior pituitary membrane pellet (homogenate, 39000 g)
T1 sequence (Q01717 1-412): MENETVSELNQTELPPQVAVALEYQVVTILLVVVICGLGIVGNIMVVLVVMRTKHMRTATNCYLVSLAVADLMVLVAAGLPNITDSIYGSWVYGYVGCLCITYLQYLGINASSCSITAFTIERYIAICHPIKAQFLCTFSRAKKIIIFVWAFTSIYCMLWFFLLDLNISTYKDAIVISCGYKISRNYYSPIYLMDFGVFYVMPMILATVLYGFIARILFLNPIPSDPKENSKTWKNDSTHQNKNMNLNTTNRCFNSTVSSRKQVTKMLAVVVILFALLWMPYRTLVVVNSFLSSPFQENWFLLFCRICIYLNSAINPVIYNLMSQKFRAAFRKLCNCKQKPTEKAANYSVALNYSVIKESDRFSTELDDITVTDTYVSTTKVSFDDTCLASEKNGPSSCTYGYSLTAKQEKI
Experimental: (§1) Adult, male Sprague-Dawley rats were obtained from Taconic Farms (Germantown, N.Y.) and housed at controlled temperature (22° C.) and light cycle (12/12 h) with free access to food and water. On the experimental day, six to eight animals were rapidly decapitated and their brains quickly removed and placed on a cold plate. Anterior pituitary and cortex tissue samples were obtained and processed immediately for receptor-binding experiments.
(§2) All steps of the tissue preparation and binding assays were done on ice. After weighing, pooled tissue samples were homogenized in 25 ml of ice-cold sodium phosphate buffer (0.1M, pH 7.4-7.5), using a Brinkmann Polytron homogenizer (setting 7, 15-20 s). The homogenates were then centrifuged in a refrigerated Sorvall RC5B centrifuge at 39000 g for 30 minutes. The supernatants were discharged and the pellets were resuspended to a concentration of 50 (pituitary) or 100 mg wet weight/ml (ww/ml, cortex) in ice-cold sodium phosphate buffer containing 177 μM Bacitracin.
(§3) Competition experiments were performed by incubating mixtures of tissue resuspensions, [3H][3-Me-His2]-TRH (87 Ci/mmol, Amersham) in 3 to 5 nM final concentration and increasing amounts of analog in a total volume of 100 μl/vial at 4° to 6° C. for 2.5 hours. In order to limit loss of peptides by adherence to glass, 0.05% bovine serum albumin was included in the assays. Nonspecific binding was determined in the presence of 10 μM TRH. The incubation period was terminated by vacuum filtration of the incubation mixture through Whatman GF/B glass filters, using a 48-well cell harvester (Brandel Inc., Gaithersburg, Md.), followed by four rinses with 4 ml each of ice-cold 0.9% NaCl solution. Filters were then placed in scintillation vials and kept overnight in 5 ml of watermiscible scintillation fluid (Beckman Ready-SolvTM HP) each. Bound radioactivity was measured after thorough shaking of the vials on the following day in an LKB 1218 Rackbeta liquid scintillation counter with automatic correction for tritium quenching. Specific binding was calculated as total binding minus nonspecific binding. Inhibition constants, Ki, were determined according to Cheng and Prusoff (1973) using the radioligand-binding analysis software LIGAND (Elsevier-Biosoft; Munson and Rodbard, 1980). Unless otherwise stated, data in tables and figures represent mean values±S.E.M. (standard error of the mean of separate experiments done in duplicate).

[2] = target: TRH receptor binding sites in cortex; test: Receptor binding assay, [3H][3-Me-His2]-TRH competition, cortex homogenate; parameters: species or system rat (Sprague-Dawley); details: rat cortex membranes; [3H][3-Me-His2]-TRH 3 to 5 nM; 4-6 °C, 2.5 hours; mean ± S.E.M.
Experimental: as §1, §2
as §3, with “The incubation period was terminated by vacuum filtration of the incubation mixture through Whatman GF/B glass filters, using a 48-well cell harvester (Brandel Inc., Gaithersburg, Md.), followed by four rinses with 4 ml each of ice-cold 0.9% NaCl solution.” left out, “Unless otherwise stated, data in tables and figures represent mean values±S.E.M. (standard error of the mean of separate experiments done in duplicate).” left out

[3] = test system: TSH release; details: relative to TRH; cited from earlier work
[4] = test system: TRH receptor; details: compared with natural TRH; reported by Kruszynski; cited from earlier work
[5] = test system: TSH release; details: compared with natural TRH; reported by Kruszynski; cited from earlier work

| Ki [1] | Ki [2] | Structure (SMILES) | potency in stimulating TSH release compared with TRH [3] | TRH receptor binding affinity [4] | TSH releasing activity [5] |
| --- | --- | --- | --- | --- | --- |
| 31.9 ± 2.9 nM | – | NC(=O)[C@@H]1CCCN1C(=O)[C@H](Cc1c[nH]cn1)NC(=O)[C@@H]1CCC(=S)N1 [Example 1, L-thiopyroglutamyl-L-histidyl-L-oroline amide] | – | – | – |
| 85.4 ± 17.8 nM | 86.1 ± 6.3 nM | NC(=S)[C@@H]1CCCN1C(=O)[C@H](Cc1c[nH]cn1)NC(=O)[C@@H]1CCC(=S)N1 [Example 2, L-thiopyroglutamyl-L-histidyl-L-proline thioamide] | more potent than TRH | – | – |
| 8 ± 0.2 nM | 93.1 ± 16.5 nM | NC(=S)[C@@H]1CCCN1C(=O)[C@H](Cc1c[nH]cn1)NC(=O)[C@@H]1CCC(=O)N1 [Example 3, L-pyroglutamyl-L-histidyl-L-proline thioamide] | – | matching that of natural TRH | matching that of natural TRH |
| 24.1 ± 14.2 nM | 26.1 ± 4.5 nM | NC(=O)[C@@H]1CCCN1C(=O)[C@H](Cc1c[nH]cn1)NC(=O)[C@@H]1CCC(=O)N1 [TRH, L-pyroglutamyl-L-histidyl-L-proline-amide, reference compound] | – | – | – |
